Reference: patent publication US7902373B2 (Pfizer Inc, priority 2006, dated 2011)
pIC50: −log10 of the molar value.

Biological target: human recombinant H-PGDS (Homo sapiens, UniProt O60760)
Test: Fluorescence intensity h-PGDS TBA enzyme assay
Assay type: biochemical
Settings: Examples up to 622 (and 3a, 3b)

Chain of human recombinant H-PGDS (O60760 whole entry): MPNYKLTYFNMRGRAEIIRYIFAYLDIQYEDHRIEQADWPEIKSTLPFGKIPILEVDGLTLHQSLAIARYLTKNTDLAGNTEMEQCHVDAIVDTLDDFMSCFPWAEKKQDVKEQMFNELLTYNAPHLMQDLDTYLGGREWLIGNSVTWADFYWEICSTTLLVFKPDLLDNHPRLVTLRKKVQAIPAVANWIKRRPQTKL

Row | pIC50 | Structure (SMILES)
1 | 8.60 | CCOc1ccc(CN2CCC(NC(=O)c3ccc(-c4cccc(F)c4)nc3)CC2)cc1OCC [Example 228, N-[1-(3,4-Diethoxybenzyl)piperidin-4-yl]-6-(3-fluorophenyl)nicotinamide]
2 | 9.29 | CCOc1ccccc1CN1CCC(NC(=O)c2ccc(-c3cccc(F)c3)nc2)CC1 [Example 229, N-[1-(2-Ethoxybenzyl)piperidin-4-yl]-6-(3-fluorophenyl)nicotinamide]
3 | 9.28 | COc1cccc(CN2CCC(NC(=O)c3ccc(-c4cccc(F)c4)nc3)CC2)c1OC [Example 230, N-[1-(2,3-Dimethoxybenzyl)piperidin-4-yl]-6-(3-fluorophenyl)nicotinamide]
4 | 9.26 | COc1ccccc1CN1CCC(NC(=O)c2ccc(-c3cccc(F)c3)nc2)CC1 [Example 231, 6-(3-Fluorophenyl)-N-[1-(2-methoxybenzyl)piperidin-4-yl]nicotinamide]
5 | 8.57 | Cc1c(CN2CCC(NC(=O)c3ccc(-c4cccc(F)c4)nc3)CC2)c(=O)n(-c2ccccc2)n1C [Example 232, N-{1-[(1,5-Dimethyl-3-oxo-2-phenyl-2,3-dihydro-1H-pyrazol-4-yl)methyl]piperidin-4-yl}-6-(3-fluorophenyl)nicotinamide]
6 | 9.45 | O=C(NC1CCN(Cc2cccc(Cl)c2)CC1)c1ccc(-c2cccc(F)c2)nc1 [Example 233, N-[1-(3-Chlorobenzyl)piperidin-4-yl]-6-(3-fluorophenyl)nicotinamide]
7 | 8.78 | CCOc1ccc(CN2CCC(NC(=O)c3ccc(-c4cccc(F)c4)nc3)CC2)cc1 [Example 234, N-[1-(4-Ethoxybenzyl)piperidin-4-yl]-6-(3-fluorophenyl)nicotinamide]
8 | 8.70 | COc1ccc(CN2CCC(NC(=O)c3ccc(-c4cccc(F)c4)nc3)CC2)cc1C [Example 235, 6-(3-Fluorophenyl)-N-[1-(4-methoxy-3-methylbenzyl)piperidin-4-yl]nicotinamide]
9 | 9.24 | O=C(NC1CCN(Cc2ccc(F)c(F)c2F)CC1)c1ccc(-c2cccc(F)c2)nc1 [Example 236, 6-(3-Fluorophenyl)-N-[1-(2,3,4-trifluorobenzyl)piperidin-4-yl]nicotinamide]
10 | 9.16 | O=C(NC1CCN(Cc2ccc(F)cc2F)CC1)c1ccc(-c2cccc(F)c2)nc1 [Example 237, N-[1-(2,4-Difluorobenzyl)piperidin-4-yl]-6-(3-fluorophenyl)nicotinamide]
11 | 9.87 | N#Cc1cccc(CN2CCC(NC(=O)c3ccc(-c4cccc(F)c4)nc3)CC2)c1 [Example 238, N-[1-(3-Cyanobenzyl)piperidin-4-yl]-6-(3-fluorophenyl)nicotinamide]
12 | 9.61 | O=C(NC1CCN(Cc2cc(F)ccc2F)CC1)c1ccc(-c2cccc(F)c2)nc1 [Example 239, N-[1-(2,5-Difluorobenzyl)piperidin-4-yl]-6-(3-fluorophenyl)nicotinamide]
13 | 9.74 | O=C(NC1CCN(Cc2cccc(F)c2F)CC1)c1ccc(-c2cccc(F)c2)nc1 [Example 240, N-[1-(2,3-Difluorobenzyl)piperidin-4-yl]-6-(3-fluorophenyl)nicotinamide]
14 | 8.66 | O=C(NC1CCN(Cc2ccc3c(c2)OCCO3)CC1)c1ccc(-c2cccc(F)c2)nc1 [Example 241, N-[1-(2,3-Dihydro-14-benzodioxin-6-ylmethyl)piperidin-4-yl]-6-(3-fluorophenyl)nicotinamide]
15 | 9.11 | Cn1cc(CN2CCC(NC(=O)c3ccc(-c4cccc(F)c4)nc3)CC2)c2ccccc21 [Example 242, 6-(3-Fluorophenyl)-N-{1-[(1-methyl-1H-indol-3-yl)methyl]piperidin-4-yl}nicotinamide]
16 | 8.99 | CC(=O)n1cc(CN2CCC(NC(=O)c3ccc(-c4cccc(F)c4)nc3)CC2)c2ccccc21 [Example 243, N-{1-[(1-Acetyl-1H-indol-3-yl)methyl]piperidin-4-yl}-6-(3-fluorophenyl)nicotinamide]
17 | 9.54 | O=C(NC1CCN(Cc2c(F)cccc2F)CC1)c1ccc(-c2cccc(F)c2)nc1 [Example 244, N-[1-(2,6-Difluorobenzyl)piperidin-4-yl]-6-(3-fluorophenyl)nicotinamide]
18 | 8.92 | COc1ccc(CN2CCC(NC(=O)c3ccc(-c4cccc(F)c4)nc3)CC2)cc1Br [Example 245, N-[1-(3-Bromo-4-methoxybenzyl)piperidin-4-yl]-6-(3-fluorophenyl)nicotinamide]
19 | 8.71 | O=C(NC1CCN(Cc2cnc3ccccc3c2)CC1)c1ccc(-c2cccc(F)c2)nc1 [Example 246, 6-(3-Fluorophenyl)-N-[1-(quinolin-3-ylmethyl)piperidin-4-yl]nicotinamide]
20 | 9.19 | COc1ccc(CN2CCC(NC(=O)c3ccc(-c4cccc(F)c4)nc3)CC2)cc1F [Example 247, N-[1-(3-Fluoro-4-methoxybenzyl)piperidin-4-yl]-6-(3-fluorophenyl)nicotinamide]

Row | pIC50 | Structure (SMILES)
21 | 8.98 | O=C(NC1CCN(Cc2cc(F)cc(F)c2)CC1)c1ccc(-c2cccc(F)c2)nc1 [Example 248, N-[1-(3,5-Difluorobenzyl)piperidin-4-yl]-6-(3-fluorophenyl)nicotinamide]
22 | 8.93 | CCOc1cc(CN2CCC(NC(=O)c3ccc(-c4cccc(F)c4)nc3)CC2)ccc1OC [Example 249, N-[1-(3-Ethoxy-4-methoxybenzyl)piperidin-4-yl]-6-(3-fluorophenyl)nicotinamide]
23 | 9.39 | Cc1nn(C)c(C)c1CN1CCC(NC(=O)c2ccc(-c3cccc(F)c3)nc2)CC1 [Example 250, 6-(3-Fluorophenyl)-N-{1-[(1,3-trimethyl-1H-pyrazol-4-yl)methyl]piperidin-4-yl}nicotinamide]
24 | 9.21 | CC(C)(C)CN1CCC(NC(=O)c2ccc(-c3cccc(F)c3)nc2)CC1 [Example 251, N-[1-(2,2-Dimethylpropyl)piperidin-4-yl]-6-(3-fluorophenyl)nicotinamide]
25 | 9.06 | O=C(NC1CCN(Cc2c[nH]c3ccc(F)cc23)CC1)c1ccc(-c2cccc(F)c2)nc1 [Example 252, N-{1-[(5-Fluoro-1H-indol-3-yl)methyl]piperidin-4-yl}-6-(3-fluorophenyl)nicotinamide]
26 | 8.84 | CCOc1ccc(CN2CCC(NC(=O)c3ccc(-c4cccc(F)c4)nc3)CC2)cc1OC [Example 253, N-[1-(4-Ethoxy-3-methoxybenzyl)piperidin-4-yl]-6-(3-fluorophenyl)nicotinamide]
27 | 8.77 | O=C(NC1CCN(Cc2c[nH]c(=O)[nH]c2=O)CC1)c1ccc(-c2cccc(F)c2)nc1 [Example 254, N-{1-[(2,4-Dioxo-1234-tetrahydropyrimidin-5-yl)methyl]piperidin-4-yl}-6-(3-fluorophenyl)nicotinamide]
28 | 9.13 | O=C(NC1CCN(Cc2ccccc2OCCO)CC1)c1ccc(-c2cccc(F)c2)nc1 [Example 255, 6-(3-Fluorophenyl)-N-{1-[2-(2-hydroxyethoxy)benzyl]piperidin-4-yl}nicotinamide]
29 | 9.40 | O=C(NC1CCN(Cc2cccc(OCCO)c2)CC1)c1ccc(-c2cccc(F)c2)nc1 [Example 256, 6-(3-Fluorophenyl)-N-{1-[3-(2-hydroxyethoxy)benzyl]piperidin-4-yl}nicotinamide]
30 | 9.24 | COc1cc(CN2CCC(NC(=O)c3ccc(-c4cccc(F)c4)nc3)CC2)cc(Cl)c1O [Example 257, N-[1-(3-Chloro-4-hydroxy-5-methoxybenzyl)piperidin-4-yl]-6-(3-fluorophenyl)nicotinamide]
31 | 8.91 | O=C(NC1CCN(Cc2ccc(OCCO)cc2)CC1)c1ccc(-c2cccc(F)c2)nc1 [Example 258, 6-(3-Fluorophenyl)-N-{1-[4-(2-hydroxyethoxy)benzyl]piperidin-4-yl}nicotinamide]
32 | 8.77 | CS(=O)(=O)c1ccc(CN2CCC(NC(=O)c3ccc(-c4cccc(F)c4)nc3)CC2)cc1 [Example 259, 6-(3-Fluorophenyl)-N-{1-[4-(methylsulfonyl)benzyl]piperidin-4-yl}nicotinamide]
33 | 9.24 | COc1ccc(CN2CCC(NC(=O)c3ccc(-c4cccc(F)c4)nc3)CC2)c(Cl)c1OC [Example 260, N-[1-(2-Chloro-3,4-dimethoxybenzyl)piperidin-4-yl]-6-(3-fluorophenyl)nicotinamide]
34 | 8.83 | O=C(NC1CCN(Cc2cc3ccccc3nn2)CC1)c1ccc(-c2cccc(F)c2)nc1 [Example 261, N-[1-(Cinnolin-3-ylmethyl)piperidin-4-yl]-6-(3-fluorophenyl)nicotinamide]
35 | 8.41 | Cc1nc2ccccc2nc1CN1CCC(NC(=O)c2ccc(-c3cccc(F)c3)nc2)CC1 [Example 262, 6-(3-Fluorophenyl)-N-{1-[(3-methylquinoxalin-2-yl)methyl]piperidin-4-yl}nicotinamide]
36 | 8.94 | O=C(NC1CCN(Cc2cnc3ccccc3n2)CC1)c1ccc(-c2cccc(F)c2)nc1 [Example 263, 6-(3-Fluorophenyl)-N-[1-(quinoxalin-2-ylmethyl)piperidin-4-yl]nicotinamide]
37 | 8.70 | Cn1cc(CN2CCC(NC(=O)c3ccc(-c4cccc(F)c4)nc3)CC2)c(=O)n(C)c1=O [Example 264, N-{1-[(1,3-Dimethyl-2,4-dioxo-1,2,3,4-tetrahydropyrimidin-5-yl)methyl]piperidin-4-yl}-6-(3-fluorophenyl)nicotinamide]
38 | 8.37 | COC(=O)c1ccc2c(CN3CCC(NC(=O)c4ccc(-c5cccc(F)c5)nc4)CC3)c[nH]c2c1 [Example 265, Methyl 3-{[4-({[6-(3-fluorophenyl)pyridin-3-yl]carbonyl}amino)piperidin-1-yl]methyl}-1H-indole-6-carboxylate]
39 | 8.67 | Cc1nc(CN2CCC(NC(=O)c3ccc(-c4cccc(F)c4)nc3)CC2)c[nH]1 [Example 266, 6-(3-Fluorophenyl)-N-{1-[(2-methyl-1H-imidazol-4-yl)methyl]piperidin-4-yl}nicotinamide]
40 | 9.00 | O=C(NC1CCN(Cc2cc(Cl)c(O)c(Cl)c2)CC1)c1ccc(-c2cccc(F)c2)nc1 [Example 267, N-[1-(3,5-Dichloro-4-hydroxybenzyl)piperidin-4-yl]-6-(3-fluorophenyl)nicotinamide]
